Source: patent publication US20120329736A1, “Treatment for gastrointestinal disorders using a selective, site-activated binding system” (priority 2011, published 2012)
Values after ≈ are worked out from the molar mass of the structure shown.

Columns and labels:
[1] = cited from earlier work
[2] = Hydrogen peroxide retention by extracts after desiccation and rehydration (colorimetric strips); assay type: physicochemical; conditions: dissolved in 35% hydrogen peroxide, heated at 80° C., desiccated, rehydrated
Procedure: In order to compare the samples provided above, a test series was prepared in 30 ml tubes containing from 1 g-10 g of the above extracts of Chinese Gall, Green Tea, Pomegranate and Resveratrol. Each was dissolved in 20 ml of 35% hydrogen peroxide then separate to two aliquots. One part was heated at 80° C. to a dark viscous semi-liquid and allowed to desiccate to a final volume of 5 ml. Each was rehydrated and serially diluted to detection range.

[3] = tested on: broad spectrum of bacteria, gram positive and gram negative; conditions: cited from earlier work

Compound | water solubility [1] | peroxide retention capability [2] | MIC performance compared to the binding system [3]
Oc1ccc(C=Cc2cc(O)cc(O)c2)cc1 [Resveratrol] | 3 µg/mL (≈ 13.1 µM) | relatively less ability to form stable perhydrates | –
RIFAXAMIN | – | – | performed poorly compared to the binding system
